Results published in PMC6220303 (EMBO Molecular Medicine, 2018).

Test system: healthy participants ≥ 60 years
Assay: Adverse events after 3 months daily dosing (Appendix Table S8)
Format: in vivo, human
Description: For further details, see the Appendix Table S10 in Appendix and the accompanying clinical protocols synopsis (Appendix Table S11).
Randomized, double-blind, placebo-controlled, parallel-group study to assess the safety, Multiple-dose over 13-tolerability, pharmacokinetics ≥ 60 yrs 100 / 24 weeks (2, 10, 35 or 85 mg and pharmacodynamics of q.d. CNP520 vs. placebo) multiple oral doses of CNP520 in healthy elderly participants
Title A randomized, double-blind, placebo-controlled, parallel-group study to assess the safety, tolerability, pharmacokinetics and pharmacodynamics of multiple oral doses of CNP520 in healthy elderly subjects
Brief title Dose-ranging safety and tolerability study in subjects ≥60 years of age Sponsor and Clinical Novartis
Study type Interventional […]
rationale months to allow initiation future long-term efficacy trials in patients with Alzheimer’s disease (AD) or in subjects at risk of AD. In addition, data relevant for Pharmacokinetic/Pharmacodynamic modeling will be obtained in order to define the target dose in subsequent efficacy studies.
Primary Objective(s) To determine the safety and tolerability of multiple, once-daily oral doses of […]
Secondary • To assess the change from baseline of CSF Aβ concentrations (Aβ1-Objectives 38; Aβ1-40; Aβ1-42) in healthy elderly subjects over 13 weeks treatment with CNP520 as compared to placebo

C[C@@]1(c2nc(NC(=O)c3ncc(C(F)(F)F)cc3Cl)ccc2F)CO[C@@](C)(C(F)(F)F)C(N)=N1 [CNP520]
AE incidence: Immune system disorders (10 mg daily, N = 25): 0 (0.0) n (%) | AE incidence: Infections and infestations (10 mg daily, N = 25): 10 (40.0) n (%) | AE incidence: Injury, poisoning and procedural complications (10 mg daily, N = 25): 11 (44.0) n (%) | AE incidence: Investigations (10 mg daily, N = 25): 0 (0.0) n (%) | AE incidence: Metabolism and nutrition disorders (10 mg daily, N = 25): 1 (4.0) n (%) | AE incidence: Neoplasms benign, malignant & unspecified (incl. cysts and polyps) (10 mg daily, N = 25): 1 (4.0) n (%) | AE incidence: Nervous system disorders (10 mg daily, N = 25): 10 (40.0) n (%) | AE incidence: Psychiatric disorders (10 mg daily, N = 25): 2 (8.0) n (%) | AE incidence: Renal and urinary disorders (10 mg daily, N = 25): 2 (8.0) n (%) | AE incidence: Reproductive system and breast disorders (10 mg daily, N = 25): 2 (8.0) n (%) | AE incidence: Respiratory, thoracic and mediastinal disorders (10 mg daily, N = 25): 6 (24.0) n (%) | AE incidence: Skin and subcutaneous tissue disorders (10 mg daily, N = 25): 7 (28.0) n (%) | AE incidence: Vascular disorders (10 mg daily, N = 25): 2 (8.0) n (%) | Participants with at least one AE (10 mg daily, N = 25): 22 (88.0) n (%) | AE incidence: Blood and lymphatic system disorders (35 mg daily, N = 26): 1 (3.8) n (%) | AE incidence: Ear and labyrinth disorders (35 mg daily, N = 26): 1 (3.8) n (%) | AE incidence: Eye disorders (35 mg daily, N = 26): 0 (0.0) n (%) | AE incidence: Gastrointestinal disorders (35 mg daily, N = 26): 9 (34.6) n (%) | AE incidence: General disorders and administration site conditions (35 mg daily, N = 26): 4 (15.4) n (%) | AE incidence: Immune system disorders (35 mg daily, N = 26): 0 (0.0) n (%) | AE incidence: Infections and infestations (35 mg daily, N = 26): 6 (23.1) n (%) | AE incidence: Injury, poisoning and procedural complications (35 mg daily, N = 26): 10 (38.5) n (%) | AE incidence: Investigations (35 mg daily, N = 26): 1 (3.8) n (%) | AE incidence: Metabolism and nutrition disorders (35 mg daily, N = 26): 0 (0.0) n (%) | AE incidence: Neoplasms benign, malignant & unspecified (incl. cysts and polyps) (35 mg daily, N = 26): 0 (0.0) n (%) | AE incidence: Nervous system disorders (35 mg daily, N = 26): 9 (34.6) n (%) | AE incidence: Psychiatric disorders (35 mg daily, N = 26): 1 (3.8) n (%) | AE incidence: Renal and urinary disorders (35 mg daily, N = 26): 2 (7.7) n (%) | AE incidence: Reproductive system and breast disorders (35 mg daily, N = 26): 0 (0.0) n (%) | AE incidence: Respiratory, thoracic and mediastinal disorders (35 mg daily, N = 26): 5 (19.2) n (%) | AE incidence: Skin and subcutaneous tissue disorders (35 mg daily, N = 26): 2 (7.7) n (%) | AE incidence: Vascular disorders (35 mg daily, N = 26): 0 (0.0) n (%) | Participants with at least one AE (35 mg daily, N = 26): 21 (80.8) n (%) | AE incidence: Blood and lymphatic system disorders (85 mg daily, N = 24): 0 (0.0) n (%) | AE incidence: Ear and labyrinth disorders (85 mg daily, N = 24): 1 (4.2) n (%) | AE incidence: Eye disorders (85 mg daily, N = 24): 4 (16.7) n (%) | AE incidence: Gastrointestinal disorders (85 mg daily, N = 24): 4 (16.7) n (%) | AE incidence: General disorders and administration site conditions (85 mg daily, N = 24): 5 (20.8) n (%) | AE incidence: Immune system disorders (85 mg daily, N = 24): 1 (4.2) n (%) | AE incidence: Infections and infestations (85 mg daily, N = 24): 4 (16.7) n (%) | AE incidence: Injury, poisoning and procedural complications (85 mg daily, N = 24): 8 (33.3) n (%) | AE incidence: Investigations (85 mg daily, N = 24): 1 (4.2) n (%) | AE incidence: Metabolism and nutrition disorders (85 mg daily, N = 24): 0 (0.0) n (%) | AE incidence: Neoplasms benign, malignant & unspecified (incl. cysts and polyps) (85 mg daily, N = 24): 0 (0.0) n (%) | AE incidence: Nervous system disorders (85 mg daily, N = 24): 8 (33.3) n (%) | AE incidence: Psychiatric disorders (85 mg daily, N = 24): 2 (8.3) n (%) | AE incidence: Renal and urinary disorders (85 mg daily, N = 24): 1 (4.2) n (%) | AE incidence: Reproductive system and breast disorders (85 mg daily, N = 24): 0 (0.0) n (%) | AE incidence: Respiratory, thoracic and mediastinal disorders (85 mg daily, N = 24): 5 (20.8) n (%) | AE incidence: Skin and subcutaneous tissue disorders (85 mg daily, N = 24): 6 (25.0) n (%) | AE incidence: Vascular disorders (85 mg daily, N = 24): 1 (4.2) n (%) | Participants with at least one AE (85 mg daily, N = 24): 18 (75.0) n (%) | AE incidence: Blood and lymphatic system disorders (all doses, N = 100): 1 (1.0) n (%) | AE incidence: Ear and labyrinth disorders (all doses, N = 100): 3 (3.0) n (%) | AE incidence: Eye disorders (all doses, N = 100): 11 (11.0) n (%) | AE incidence: Gastrointestinal disorders (all doses, N = 100): 29 (29.0) n (%) | AE incidence: General disorders and administration site conditions (all doses, N = 100): 12 (12.0) n (%) | AE incidence: Immune system disorders (all doses, N = 100): 1 (1.0) n (%) | AE incidence: Infections and infestations (all doses, N = 100): 23 (23.0) n (%) | AE incidence: Injury, poisoning and procedural complications (all doses, N = 100): 36 (36.0) n (%) | AE incidence: Investigations (all doses, N = 100): 4 (4.0) n (%) | AE incidence: Metabolism and nutrition disorders (all doses, N = 100): 2 (2.0) n (%) | AE incidence: Neoplasms benign, malignant & unspecified (incl. cysts and polyps) (all doses, N = 100): 2 (2.0) n (%) | AE incidence: Nervous system disorders (all doses, N = 100): 40 (40.0) n (%) | AE incidence: Psychiatric disorders (all doses, N = 100): 6 (6.0) n (%) | AE incidence: Renal and urinary disorders (all doses, N = 100): 5 (5.0) n (%) | AE incidence: Reproductive system and breast disorders (all doses, N = 100): 2 (2.0) n (%) | AE incidence: Respiratory, thoracic and mediastinal disorders (all doses, N = 100): 22 (22.0) n (%) | AE incidence: Skin and subcutaneous tissue disorders (all doses, N = 100): 18 (18.0) n (%) | AE incidence: Vascular disorders (all doses, N = 100): 3 (3.0) n (%) | Participants with at least one AE (all doses, N = 100): 80 (80.0) n (%) | AE incidence: Musculoskeletal and connective tissue disorders (human, in vivo): 27 (27.0) n (%)
